The structures appear in SMILES notation.

The results in this text go back to patent publication US20250025439A1, “DERIVATIVES OF NIFUROXAZIDE FOR USE IN THE TREATMENT OF MITOCHONDRIAL DISORDERS AND NEURODEGENERATIVE DISEASES” (priority 2021, published 2025).

Assay in all cases: Affinity chromatography with NFX-beads and mass spectrometry
Holding throughout (type): binding
What all share (conditions): spectral counts, NFX coupled beads vs beads alone, human fibroblast extracts

Experiment [1] concerns the target T1, ARF GTPase-activating protein GIT2 (Homo sapiens, UniProt Q14161).
T1 construct: Protein extracts from human fibroblasts were incubated with magnetic beads; endogenous in cells; host or cells: human fibroblast lysate
T1 sequence (Q14161 1-759): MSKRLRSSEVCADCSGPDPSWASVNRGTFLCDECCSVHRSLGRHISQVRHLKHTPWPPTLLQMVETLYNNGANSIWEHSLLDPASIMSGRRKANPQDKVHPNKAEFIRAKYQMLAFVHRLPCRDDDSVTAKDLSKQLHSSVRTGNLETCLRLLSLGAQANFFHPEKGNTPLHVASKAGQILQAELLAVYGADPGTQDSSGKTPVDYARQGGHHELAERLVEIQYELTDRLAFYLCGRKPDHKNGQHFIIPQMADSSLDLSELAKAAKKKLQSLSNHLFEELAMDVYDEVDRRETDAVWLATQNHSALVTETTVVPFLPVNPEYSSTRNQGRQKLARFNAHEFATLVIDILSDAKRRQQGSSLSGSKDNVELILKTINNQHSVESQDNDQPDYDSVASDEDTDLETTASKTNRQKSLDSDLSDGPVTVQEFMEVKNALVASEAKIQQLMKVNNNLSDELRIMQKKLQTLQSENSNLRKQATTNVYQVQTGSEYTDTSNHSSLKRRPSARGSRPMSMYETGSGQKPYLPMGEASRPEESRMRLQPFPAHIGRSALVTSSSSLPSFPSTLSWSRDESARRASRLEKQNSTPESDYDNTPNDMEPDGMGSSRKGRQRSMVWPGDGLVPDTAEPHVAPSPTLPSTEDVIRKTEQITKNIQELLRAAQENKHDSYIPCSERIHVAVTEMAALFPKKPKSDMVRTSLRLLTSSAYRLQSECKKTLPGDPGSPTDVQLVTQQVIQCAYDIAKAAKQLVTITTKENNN
Here is the method: (§1) Fibroblasts were trypsinized and washed with PBS 1× then incubated in lysis buffer on ice during 20 minutes (Lysis buffer: Tris-HCl pH 7.5 50 mM, EDTA 2 mM, Triton X-100 0.1% supplemented with anti-protease and anti-phosphatase (Complete-Mini™—Roche). After centrifugation 15 minutes, 13 000 rpm at 4° C., supernatant was conserved and the protein concentration was determined using the Pierce BCA assay kit (Thermo Fisher Scientific).
(§2) 10 μL of magnetic beads and NFX-beads were washed three times in Bead buffer before to be resuspended 100 μL of Bead buffer (Bead buffer: Tris-HCl pH 7.5 50 mM, NaCl 150 mM, Triton X-100 0.1%, supplemented with anti-protease and anti-phosphatase (Complete-Mini™—Roche)) thanks to a magnetic rack (DynaMag-2 Ref 12321D Life Technologies). 800 μg of proteins were mixed with 100 μL of diluted beads and the final volume was set to 800 μL with Bead buffer. The proteins and the beads were incubated 30 minutes with rotation in a cold room. Using a magnetic rack, the beads were separated from the protein extract and washed three time with Bead buffer before to be resuspended in 75 μL of Laemmli2X. Laemmli with beads was put 5 minutes at 95° C. to eluate the proteins and the beads were discarded using a magnetic rack. 35 μL of the eluted proteins were subjected to SDS-PAGE and silver coloration (ProteoSilver™ Silver Stain Kit—Sigma Aldrich). Bands of interest were extracted from the gel and subjected to mass spectrometry.
(§3) Mass spectrometric identification and quantification of the pulled down proteins were performed as previously described (Shrivastava et al., EMBO, 2019, 38:e99871). The raw data were cleaned using the following pathway. First, only the proteins found to interact with the NFX coupled beads in the three replicates were kept for further analysis. […] The final proteins were then classified based on the fold chance and the p-value.
(§4) Identification of the NFX intracellular targets is a crucial step in understanding its mechanisms of action and to be able to improve its efficiency on a rational basis. To purify NFX-binding proteins, affinity chromatography purification was performed using magnetic beads. Protein extracts from human fibroblasts were incubated with magnetic beads alone or to which NFX has been covalently coupled (Scheme 1). Eluted fractions were subjected to SDS-PAGE electrophoresis and silver staining (FIG. 9A). The pattern was clearly different between eluted proteins from NFX-beads compared to those eluted form beads alone with 13 bands either appeared or were of a higher intensity with the NFX-beads (FIG. 9B). Excised bands were subjected to proteolytic digestion and mass spectrometry.

Experiment [2] has as its target T2, Calcium/calmodulin-dependent protein kinase type II subunit delta (CAMK2D) (Homo sapiens, UniProt Q13557).
T2 construct: Protein extracts from human fibroblasts were incubated with magnetic beads; endogenous in cells; host or cells: human fibroblast lysate
As for the experimental part: as §1, §2, §3, §4

Experiment [3] has as its target T3, Kinesin-1 heavy chain (KIF5B) (Homo sapiens, UniProt P33176).
T3 construct: Protein extracts from human fibroblasts were incubated with magnetic beads; endogenous in cells; host or cells: human fibroblast lysate
T3 sequence (P33176 1-963): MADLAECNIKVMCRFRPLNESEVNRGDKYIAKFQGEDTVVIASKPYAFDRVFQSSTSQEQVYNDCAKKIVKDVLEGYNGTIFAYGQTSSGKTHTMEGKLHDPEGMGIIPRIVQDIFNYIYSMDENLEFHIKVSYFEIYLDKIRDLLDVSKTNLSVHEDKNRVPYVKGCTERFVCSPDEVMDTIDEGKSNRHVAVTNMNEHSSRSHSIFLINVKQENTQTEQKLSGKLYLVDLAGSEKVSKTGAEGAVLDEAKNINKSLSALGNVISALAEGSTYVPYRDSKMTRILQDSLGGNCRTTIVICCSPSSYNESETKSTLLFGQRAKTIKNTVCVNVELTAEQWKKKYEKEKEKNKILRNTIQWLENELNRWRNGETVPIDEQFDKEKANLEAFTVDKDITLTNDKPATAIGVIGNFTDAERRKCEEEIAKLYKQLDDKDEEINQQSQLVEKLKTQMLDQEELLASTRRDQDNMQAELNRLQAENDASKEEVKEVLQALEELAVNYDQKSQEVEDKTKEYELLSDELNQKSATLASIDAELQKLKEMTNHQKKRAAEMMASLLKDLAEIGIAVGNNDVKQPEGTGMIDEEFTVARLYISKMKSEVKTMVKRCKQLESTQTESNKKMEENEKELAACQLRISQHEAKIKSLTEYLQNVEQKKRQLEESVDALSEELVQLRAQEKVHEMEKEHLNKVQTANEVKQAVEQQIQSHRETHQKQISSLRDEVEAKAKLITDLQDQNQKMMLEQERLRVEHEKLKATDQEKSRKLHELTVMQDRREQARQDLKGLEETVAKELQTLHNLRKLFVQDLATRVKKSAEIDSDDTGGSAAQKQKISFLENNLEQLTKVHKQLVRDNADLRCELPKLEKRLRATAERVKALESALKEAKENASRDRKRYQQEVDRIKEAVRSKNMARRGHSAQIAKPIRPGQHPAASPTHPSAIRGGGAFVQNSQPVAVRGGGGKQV
Here is the method:
as §1, §2, §3, §4

The target of experiment [4] is T4, Myotubularin-related protein 5 (SBF1) (Homo sapiens, UniProt O95248).
T4 construct: Protein extracts from human fibroblasts were incubated with magnetic beads; endogenous in cells; host or cells: human fibroblast lysate
Here is the method:
as §1, §2, §3, §4

T2 sequence (Q13557 whole entry): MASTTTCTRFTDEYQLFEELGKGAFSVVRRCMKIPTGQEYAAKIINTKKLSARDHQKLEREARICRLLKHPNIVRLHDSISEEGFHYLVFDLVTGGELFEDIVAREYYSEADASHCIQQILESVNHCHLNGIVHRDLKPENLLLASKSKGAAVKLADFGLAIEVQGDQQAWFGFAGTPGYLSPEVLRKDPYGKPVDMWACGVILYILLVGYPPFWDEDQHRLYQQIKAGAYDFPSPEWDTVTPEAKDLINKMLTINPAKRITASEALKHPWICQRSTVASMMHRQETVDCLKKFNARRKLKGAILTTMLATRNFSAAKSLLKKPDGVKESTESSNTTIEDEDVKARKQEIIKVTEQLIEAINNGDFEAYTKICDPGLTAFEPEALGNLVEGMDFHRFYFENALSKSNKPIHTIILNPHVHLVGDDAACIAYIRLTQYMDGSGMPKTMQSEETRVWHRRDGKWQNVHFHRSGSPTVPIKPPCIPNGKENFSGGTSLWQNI
T4 sequence (O95248 whole entry): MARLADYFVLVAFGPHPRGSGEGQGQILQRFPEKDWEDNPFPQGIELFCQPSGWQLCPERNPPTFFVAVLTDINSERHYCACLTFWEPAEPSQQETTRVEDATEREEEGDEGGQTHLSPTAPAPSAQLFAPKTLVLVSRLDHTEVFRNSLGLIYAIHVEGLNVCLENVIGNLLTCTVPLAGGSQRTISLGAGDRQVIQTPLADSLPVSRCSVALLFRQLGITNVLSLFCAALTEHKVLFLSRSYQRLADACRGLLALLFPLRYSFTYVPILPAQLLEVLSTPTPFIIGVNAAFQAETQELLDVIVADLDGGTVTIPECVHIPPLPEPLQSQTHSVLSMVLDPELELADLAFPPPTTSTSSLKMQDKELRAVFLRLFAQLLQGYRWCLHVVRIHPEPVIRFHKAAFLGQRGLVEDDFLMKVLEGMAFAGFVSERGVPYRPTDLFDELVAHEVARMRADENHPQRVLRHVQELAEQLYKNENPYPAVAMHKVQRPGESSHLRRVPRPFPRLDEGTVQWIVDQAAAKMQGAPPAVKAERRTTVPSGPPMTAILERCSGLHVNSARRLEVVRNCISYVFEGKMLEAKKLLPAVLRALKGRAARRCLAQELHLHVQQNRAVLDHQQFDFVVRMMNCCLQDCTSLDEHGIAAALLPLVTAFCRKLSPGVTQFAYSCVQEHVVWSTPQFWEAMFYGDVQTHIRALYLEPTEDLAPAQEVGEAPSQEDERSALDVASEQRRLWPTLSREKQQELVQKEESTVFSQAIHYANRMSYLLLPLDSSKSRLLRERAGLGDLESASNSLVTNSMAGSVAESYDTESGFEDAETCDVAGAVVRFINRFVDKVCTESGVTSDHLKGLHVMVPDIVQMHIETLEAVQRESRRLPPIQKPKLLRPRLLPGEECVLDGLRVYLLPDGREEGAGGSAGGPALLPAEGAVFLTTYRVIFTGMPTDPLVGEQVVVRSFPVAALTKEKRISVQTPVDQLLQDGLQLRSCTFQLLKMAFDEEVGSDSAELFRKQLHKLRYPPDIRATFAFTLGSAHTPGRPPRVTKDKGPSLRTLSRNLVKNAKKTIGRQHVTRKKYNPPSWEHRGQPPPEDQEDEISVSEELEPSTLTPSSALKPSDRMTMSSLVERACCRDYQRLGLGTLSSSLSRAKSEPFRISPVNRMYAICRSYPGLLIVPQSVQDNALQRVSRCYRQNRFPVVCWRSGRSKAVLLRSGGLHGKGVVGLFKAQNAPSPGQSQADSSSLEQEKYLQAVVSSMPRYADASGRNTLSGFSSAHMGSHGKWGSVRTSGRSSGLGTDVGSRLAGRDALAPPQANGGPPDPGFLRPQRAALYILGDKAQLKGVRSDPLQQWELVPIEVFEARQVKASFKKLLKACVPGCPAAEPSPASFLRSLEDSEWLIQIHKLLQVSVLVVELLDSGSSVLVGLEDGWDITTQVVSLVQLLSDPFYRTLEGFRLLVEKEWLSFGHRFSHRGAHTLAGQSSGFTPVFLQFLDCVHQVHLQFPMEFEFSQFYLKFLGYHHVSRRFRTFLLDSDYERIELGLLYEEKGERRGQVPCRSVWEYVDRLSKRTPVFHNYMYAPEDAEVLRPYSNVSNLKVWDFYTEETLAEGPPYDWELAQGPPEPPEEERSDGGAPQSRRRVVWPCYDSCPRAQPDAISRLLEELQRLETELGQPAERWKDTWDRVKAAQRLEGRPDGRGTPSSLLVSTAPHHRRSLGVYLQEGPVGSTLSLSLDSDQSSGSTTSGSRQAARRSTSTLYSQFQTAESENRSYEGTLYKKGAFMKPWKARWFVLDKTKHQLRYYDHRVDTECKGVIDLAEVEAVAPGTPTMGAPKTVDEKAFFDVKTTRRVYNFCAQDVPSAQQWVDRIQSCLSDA

As for `O=C(N/N=C/c1ccc([N+](=O)[O-])o1)c1ccc(O)cc1` [NFX, (E)-4-hydroxy-N′-((5-nitrofuran-2-yl)methylene)benzohydrazide], the Fold change in experiment [1] is given as 433.33; in experiment [2], 803.33; in experiment [3], 121.67; in experiment [4], 41.35.
